Assay results: patent publication US5961978A, “Therapeutically useful peptides and peptide fragments” (Norsk Hydro, a.s., priority 1991, dated 1999)
Where no end group is shown, it is not given here.

Assays:
T cell clone E = assay: T cell proliferation assay, clone E; format: cell-based, human
Procedure: (§1) FIG. 2 and FIGS. 2a-2e show the specificity of the T cell clones I, B, E and F in T cell proliferation assays. Assays were set up in triplicate in 96 well plates, with the five peptides present in the original peptide mixture as stimulating antigens. The wells contained 50000 irradiated (8000 R) autologous EBV transformed B cells as antigen presenting cells (APC).
(§2) Cultures were incubated for 2 days at 37° C. in a 5% CO2 incubator, and pulsed overnight with 1 μCi of ^3 H-thymidine (Amersham, England) per well before harvesting onto glass fibre filters by an automated cell harvester (Scatron, Lierbyen, Norway). Thymidine incorporation into DNA was quantitated by liquid scintillation counting using an LKB 1205 Betaplate Liquid Scintillation counter. Data are given as medians of triplicate cultures. Controls included T cell clones cultured alone, or with APC in the absence of peptides. The panels are scaled according to the magnitude of the positive response.
The conditions of the assay were as described in FIG. 2. […]

T cell clone F = assay: T cell proliferation assay, clone F; format: cell-based, human; settings: for stimulation of clone F by truncated forms of peptide 45: 10 μmolar
Procedure: as §1, §2
The conditions of the assay were exactly as described in FIG. 6.
The peptide concentration was as given in the Figure, and the conditions of the assay were otherwise as described for FIG. 6.

DR1 = format: binding, human; settings: indicator iodinated P34, tested 0,33-10 μM
DQw6 = assay: Inhibition of binding of iodinated indicator peptide P104 to affinity purified HLA DQw6; parameters: species or system human; settings: tested 0,33-10 μM
HLA-DQ = assay: Peptide inhibition study, clone E as indicator responder cell (binding of peptide 43 to HLA-DQ); format: cell-based, human; settings: FIG. 7; 5 μmolar peptide 43, 250 μmolar inhibitory peptide
From the text: Conditions are otherwise as described in FIG. 4.
Five μmolar concentration of stimulatory peptide (peptide 43) and 250 μmolar of the inhibitory peptides were used. Conditions were otherwise as described in FIG. 4. Note: Peptide 65 and 81 are non-stimulatory in a concentration of 10 μmolar (FIG. 6), but are stimulatory in a concentration of 250 μmolar.
In order to map peptide binding to HLA-DR and HLA-DQ, we tested the non-stimulatory p21 ras peptides for capacity to inhibit the binding of peptide 42 to HLA-DR, using stimulation of clone I as indicator system, and inhibition of peptide 43 binding to HLA-DQ using stimulation of clone E as an indicator system.

With “VVVGAGVVGKSALAL [compound 64, N-terminally truncated form of peptide 43]” the “stimulation of clone E by truncated forms of peptide 43” value (from here on “stimulation of clone E”) (T cell clone E; 10 μmolar) was “stimulate”.

For “VVVGAAGVGKSALAL [compound 69, N-terminally truncated form of peptide 45]”, the “stimulation of clone F by truncated forms of peptide 45” value (T cell clone F) was “stimulate”.

With “P104: printed Y----------- (SEQ ID NO. 93); iodinated P104 was the indicator peptide for binding to DQw6 (YVVVGAAGVGKSA; also: iodinated) [reference compound]” the IC50 (DR1) was 0.78 µM and the IC50 (DQw6) was under 0.33 µM.

With VVVGAAGVGKSA [p91] the IC50 (DQw6) was 1.29 µM.

For “AGVVGKSALAL [compound 68, N-terminally truncated form of peptide 43]”, the “inhibition of clone E response to peptide 43 by truncated peptides” value (shortened to “inhibition of clone E response”) (HLA-DQ) was “inhibit”.

VVGAAGVGKS [P88] was tested, and the “dose-response of clone F, potency compared to peptide 45” value (T cell clone F; FIG. 16) was “far less potent” and the IC50 (DQw6) was 8.97 µM.

For “VVGAGVVGKSALAL [compound 65, N-terminally truncated form of peptide 43]”, the “stimulation of clone E” value (T cell clone E; 10 μmolar) was “non-stimulatory”, the “stimulation of clone E” value (T cell clone E; 250 μmolar) was “become stimulatory” and the “stimulation of clone E” value (T cell clone E; 250 μmolar, listed as Peptide 65) was “stimulatory”.

For “VVGAAGVGKSALAL [compound 70, N-terminally truncated form of peptide 45]”, the “stimulation of clone F by truncated forms of peptide 45” value (T cell clone F) was “stimulate”.

In the case of “GAGVVGKSALAL [compound 67, N-terminally truncated form of peptide 43]”, the “inhibition of clone E response” value (HLA-DQ) is reported as “inhibit”.

VVVGAAGVGKS [P89] gave an IC50 (DQw6) of 10 µM.

Work on VVGAAGVGKSA [p90] yielded an IC50 (DQw6) of 9.98 µM.

“VGAGVVGKSALAL [compound 66, N-terminally truncated form of peptide 43]” was tested, and the “inhibition of clone E response” value (HLA-DQ) was “inhibit”.
